Measured values reported in patent US9758527B2, “Cyclohexene derivative, preparation method therefor, and pharmaceutical composition for preventing or treating metabolic diseases, containing same as active ingredient” (HYUNDAI PHARM CO., LTD., priority 2014, dated 2017).
Like-named read-outs stand apart in the source and are kept apart here.

Target: T1, G protein-coupled receptor 119 (GPR-119) (Mesocricetus auratus, UniProt A0A1U8CD06)
T1 construct: hamster-derived β-cells containing G protein-coupled receptor 119 (GPR-119), HIT-T15 cells; host or cells: HIT-T15 (hamster pancreatic β-cells)
T1 sequence (A0A1U8CD06 1-334): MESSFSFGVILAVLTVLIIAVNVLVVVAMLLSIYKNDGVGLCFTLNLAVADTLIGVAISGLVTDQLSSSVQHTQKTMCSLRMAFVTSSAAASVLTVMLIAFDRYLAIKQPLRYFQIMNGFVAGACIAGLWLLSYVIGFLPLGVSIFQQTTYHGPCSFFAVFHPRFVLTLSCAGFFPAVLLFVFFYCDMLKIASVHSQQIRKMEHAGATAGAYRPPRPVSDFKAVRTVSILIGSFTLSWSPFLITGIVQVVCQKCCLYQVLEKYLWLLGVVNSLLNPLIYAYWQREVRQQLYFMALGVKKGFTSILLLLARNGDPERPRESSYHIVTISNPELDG
Test: Evaluation of cAMP activity in HIT-T15 cells (HTRF cAMP dynamic kit)
Type: cell-based, hamster
Conditions: cAMP activation
Method: To check whether the cyclohexene derivatives according to the present invention activate cyclic adenosine monophosphate (cAMP), experiments were carried out, as follows.
The HIT-T15 cells were plated on a 96-well plate at 60,000 cells per well. On the next day of plating, the cells were treated with a varying concentration of each of the example compounds according to the present invention, and incubated at 37° C. for an hour. In this case, each of the treated compounds was used at six concentrations, ranging from […], to treat the cells.
The cyclic adenosine monophosphate (cAMP) activity was measured according to the manufacturer's instruction using a cAMP dynamic kit commercially available from Cis Bio Inc. (Bedford, Mass.). The cells were lysed, and a level of cAMP was determined by a competitive immunoassay using D2-labeled cAMP and a cryptate-labeled anti-cAMP antibody. Fluorescence was read in Flex Station (Molecular Devices). […] Unlabeled cAMP in the cell lysate competed with the D2-labeled cAMP against the cryptate-labeled antibody. Since a decrease in the measured intensity of the FRET signals represents a level of cAMP in the cells, the cAMP activities of the compounds are calculated as a change in FRET signals by adjusting an amount of dimethyl sulfoxide (DMSO).

[1] = 1 h at 37° C., six concentrations, read-out: EC50

Row | EC50 [1] [nM] | EC50 (read-out: EC50 value) [nM] | Compound
1 | 8 | ≤ 50 | CC(C)(C)OC(=O)N1CCC(COc2ccc(C3=CCC(C(=O)N4CC[C@H](F)C4)CC3)cc2F)CC1 (stereo partly drawn) [Example 57, tert-butyl 4-((2-fluoro-4-(4-((S)-3-fluoropyrrolidine-1-carbonyl)cyclohex-1-enyl)phenoxy)methyl)piperidine-1-carboxylate]
2 | – | ≤ 50 | CC(C)(C)OC(=O)N1CCC(COc2ccc(C3=CCC(C(=O)N4CC[C@@H](F)C4)CC3)cc2F)CC1 (stereo partly drawn) [Example 58, tert-butyl 4-((2-fluoro-4-(4-((R)-3-fluoropyrrolidine-1-carbonyl)cyclohex-1-enyl)phenoxy)methyl)piperidine-1-carboxylate]
3 | 78 | – | C[C@@H](CO)NC(=O)C1CC=C(c2ccc(OCC3CCN(C(=O)OC(C)(C)C)CC3)c(F)c2)CC1 (stereo partly drawn) [Example 59, tert-butyl 4-((2-fluoro-4-(4-((S)-1-hydroxypropan-2-ylcarbamoyl)cyclohex-1-enyl)phenoxy)methyl)piperidine-1-carboxylate]
4 | 40 | ≤ 50 | C[C@H](CO)NC(=O)C1CC=C(c2ccc(OCC3CCN(C(=O)OC(C)(C)C)CC3)c(F)c2)CC1 (stereo partly drawn) [Example 60, tert-butyl 4-((2-fluoro-4-(4-((R)-1-hydroxypropan-2-ylcarbamoyl)cyclohex-1-enyl)phenoxy)methyl)piperidine-1-carboxylate]
5 | 45 | ≤ 50 | C[C@H](O)CNC(=O)C1CC=C(c2ccc(OCC3CCN(C(=O)OC(C)(C)C)CC3)c(F)c2)CC1 (stereo partly drawn) [Example 61, tert-butyl 4-((2-fluoro-4-(4-((S)-2-hydroxypropylcarbamoyl)cyclohex-1-enyl)phenoxy)methyl)piperidine-1-carboxylate]
6 | 70 | – | C[C@@H](O)CNC(=O)C1CC=C(c2ccc(OCC3CCN(C(=O)OC(C)(C)C)CC3)c(F)c2)CC1 (stereo partly drawn) [Example 62, tert-butyl 4-((2-fluoro-4-(4-((R)-2-hydroxypropylcarbamoyl)cyclohex-1-enyl)phenoxy)methyl)piperidine-1-carboxylate]
7 | 110 | – | CC(C)(C)OC(=O)N1CCC(COc2ccc(C3=CCC(C(=O)NC[C@H](O)CO)CC3)cc2F)CC1 (stereo partly drawn) [Example 63, tert-butyl 4-((4-(4-((S)-2,3-dihydroxypropylcarbamoyl)cyclohex-1-enyl)-2-fluorophenoxy)methyl)piperidine-1-carboxylate]
8 | 50 | ≤ 50 | CC(C)(C)OC(=O)N1CCC(COc2ccc(C3=CCC(C(=O)NC[C@@H](O)CO)CC3)cc2F)CC1 (stereo partly drawn) [Example 64, tert-butyl 4-((4-(4-((R)-2,3-dihydroxypropylcarbamoyl)cyclohex-1-enyl)-2-fluorophenoxy)methyl)piperidine-1-carboxylate]
9 | 41 | ≤ 50 | CC(C)c1noc(N2CCC(COc3ccc(C4=CCC(C(=O)N5CCC5)CC4)cc3)CC2)n1 (centres unmarked) [Example 65, azetidin-1-yl(4-(4-((1-(3-isopropyl-1,2,4-oxadiazol-5-yl)piperidin-4-yl)methoxy)phenyl)cyclohex-3-enyl)methanone]
10 | 18 | ≤ 50 | CC(C)c1noc(N2CCC(COc3ccc(C4=CCC(C(=O)N5CCOCC5)CC4)cc3)CC2)n1 (centres unmarked) [Example 66, (4-(4-((1-(3-isopropyl-1,2,4-oxadiazol-5-yl)piperidin-4-yl)methoxy)phenyl)cyclohex-3-enyl)(morpholino)methanone]
11 | 60 | – | CC(C)(C)OC(=O)N1CCC(COc2ccc(C3=CCC(C(=O)NC(CO)CO)CC3)cc2F)CC1 (centres unmarked) [Example 67, tert-butyl 4-((4-(4-(1,3-dihydroxypropan-2-ylcarbamoyl)cyclohex-1-enyl)-2-fluorophenoxy)methyl)piperidine-1-carboxylate]
12 | 300 | – | CC(C)(C)OC(=O)N1CCC(COc2ccc(C3=CCC(C(=O)NC(CO)CO)CC3)cn2)CC1 (centres unmarked) [Example 68, tert-butyl 4-((5-(4-(1,3-dihydroxypropan-2-ylcarbamoyl)cyclohex-1-enyl)pyridin-2-yloxy)methyl)piperidine-1-carboxylate]
13 | 45 | ≤ 50 | CC(C)(C)OC(=O)N1CCC(COc2ccc(C3=CCC(C(=O)N4CCOCC4)CC3)cn2)CC1 (centres unmarked) [Example 70, tert-butyl 4-((5-(4-(morpholine-4-carbonyl)cyclohex-1-enyl)pyridin-2-yloxy)methyl)piperidine-1-carboxylate]
14 | 5.4 | ≤ 50 | CC(C)(C)OC(=O)N1CCC(COc2ccc(C3=CCC(C(=O)N4CCSCC4)CC3)cc2F)CC1 (centres unmarked) [Example 71, tert-butyl 4-((2-fluoro-4-(4-(thiomorpholine-4-carbonyl)cyclohex-1-enyl)phenoxy)methyl)piperidine-1-carboxylate]
15 | 25 | ≤ 50 | CC(C)(C)OC(=O)N1CCC(COc2ccc(C3=CCC(C(=O)N4CCSCC4)CC3)cn2)CC1 (centres unmarked) [Example 72, tert-butyl 4-((5-(4-(thiomorpholine-4-carbonyl)cyclohex-1-enyl)pyridin-2-yloxy)methyl)piperidine-1-carboxylate]
16 | 11 | ≤ 50 | CC(C)(C)OC(=O)N1CCC(COc2ccc(C3=CCC(C(=O)N4CCS(=O)(=O)CC4)CC3)cc2F)CC1 (centres unmarked) [Example 73, tert-butyl 4-((2-fluoro-4-(4-(thiomorpholine-1,1-dioxide-4-carbonyl)cyclohex-1-enyl)phenoxy)methyl)piperidine-1-carboxylate]
17 | 6.2 | ≤ 50 | CC(C)c1noc(N2CCC(COc3ccc(C4=CCC(C(=O)N5CCSCC5)CC4)cc3)CC2)n1 (centres unmarked) [Example 74, (4-(4-((1-(3-isopropyl-1,2,4-oxadiazol-5-yl)piperidin-4-yl)methoxy)phenyl)cyclohex-3-enyl)(thiomorpholino)methanone]
18 | 210 | – | CC(C)c1noc(N2CCC(COc3ccc(C4=CCC(C(=O)NCCF)CC4)cc3)CC2)n1 (centres unmarked) [Example 75, N-(2-fluoroethyl)-4-(4-((1-(3-isopropyl-1,2,4-oxadiazol-5-yl)piperidin-4-yl)methoxy)phenyl)cyclohex-3-enecarboxamide]
19 | 12 | ≤ 50 | CC(C)c1noc(N2CCC(COc3ccc(C4=CCC(C(=O)N(C)CCCNC(=O)OC(C)(C)C)CC4)cc3)CC2)n1 (centres unmarked) [Example 76, tert-butyl 3-(4-(4-((1-(3-isopropyl-1,2,4-oxadiazol-5-yl)piperidin-4-yl)methoxy)phenyl)-N-methylcyclohex-3-enecarboxamido)propylcarbamate]
20 | 12 | ≤ 50 | CC(C)c1noc(N2CCC(COc3ccc(C4=CCC(C(=O)N(C)CCCN)CC4)cc3)CC2)n1 (centres unmarked) [Example 77, N-(3-aminopropyl)-4-(4-((1-(3-isopropyl-1,2,4-oxadiazol-5-yl)piperidin-4-yl)methoxy)phenyl)-N-methylcyclohex-3-enecarboxamide]
21 | 100 | – | CC(C)c1noc(N2CCC(COc3ccc(C4=CCC(C(=O)NCC(F)(F)F)CC4)cc3)CC2)n1 (centres unmarked) [Example 78, 4-(4-((1-(3-isopropyl-1,2,4-oxadiazol-5-yl)piperidin-4-yl)methoxy)phenyl)-N-(2,2,2-trifluoroethyl)cyclohex-3-enecarboxamide]
22 | 49 | ≤ 50 | CCN1CCN(C(=O)C2CC=C(c3ccc(OCC4CCN(c5nc(C(C)C)no5)CC4)cc3)CC2)CC1 (centres unmarked) [Example 79, (4-ethylpiperazin-1-yl)(4-(4-((1-(3-isopropyl-1,2,4-oxadiazol-5-yl)piperidin-4-yl)methoxy)phenyl)cyclohex-3-enyl)methanone]
23 | 9 | ≤ 50 | CC(C)c1noc(N2CCC(COc3ccc(C4=CCC(C(=O)N(C)CCO)CC4)cc3F)CC2)n1 (centres unmarked) [Example 81, 4-(3-fluoro-4-((1-(3-isopropyl-1,2,4-oxadiazol-5-yl)piperidin-4-yl)methoxy)phenyl)-N-(2-hydroxyethyl)-N-methylcyclohex-3-enecarboxamide]
24 | 9 | ≤ 50 | CC(C)(CO)CNC(=O)C1CC=C(c2ccc(OCC3CCN(C(=O)OC(C)(C)C)CC3)c(F)c2)CC1 (centres unmarked) [Example 82, tert-butyl 4-((2-fluoro-4-(4-(3-hydroxy-2,2-dimethylpropylcarbamoyl)cyclohex-1-enyl)phenoxy)methyl)piperidine-1-carboxylate]
25 | 75 | – | CC(C)c1noc(N2CCC(COc3ccc(C4=CCC(C(=O)N[C@@H](C)CO)CC4)cc3F)CC2)n1 (stereo partly drawn) [Example 83, 4-(3-fluoro-4-((1-(3-isopropyl-1,2,4-oxadiazol-5-yl)piperidin-4-yl)methoxy)phenyl)-N-((S)-1-hydroxypropan-2-yl)cyclohex-3-enecarboxamide]
